The nature of data set [1]: Measurement of Log P values by HPLC on reversed phase columns (EEC directive 79/831 Annex V.A8). Particulars: reversed phase HPLC column, method [a]: LC-UV, acidic range, 0.1% formic acid in water and acetonitrile as eluent. It is filed as physicochemical. An outline of the steps: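 Reversed-phase HPLC with UV detection per EEC 79/831 Annex V.A8, linear 10–95% acetonitrile gradient. Aqueous eluent: 0.1% formic acid (acidic), 0.001 M ammonium acetate (neutral), or 0.1% phosphoric acid (acidic); multiple values in one method joined by "+".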

The test system of data set [2] is Botrytis cinerea. Nature of the data set: In vivo preventive test on Botrytis cinerea (grey mould). As to conditions: 500 ppm of active ingredient, preventive spray on gherkin or cabbage, evaluated 4 to 5 days after inoculation, read-out: efficacy. The essentials: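 Young gherkin or cabbage plants were sprayed with compound in DMSO/acetone/Tween 80 diluted in water, then inoculated 24 hours later with a B. cinerea spore suspension. Incubation lasted 4 to 5 days: gherkin at 17° C., 90% relative humidity; cabbage at 20° C., 100% relative humidity.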

Data set [3] has as its system Pyrenophora teres. Nature of the data set: In vivo preventive test on Pyrenophora teres (net blotch on barley). As to conditions: 240 h, 500 ppm of active ingredient, preventive spray on barley, evaluated 10 days after inoculation, read-out: efficacy. An outline of the steps: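 Young barley plants sprayed preventively with compound formulated in DMSO/acetone/Tween 80 and diluted in water; controls got solvent only. Inoculated 24 hours later with P. teres spore suspension, then held 48 hours at 20° C, 100% RH and 8 days at 20° C, 70-80% RH.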

Data set [4] deals with Sphaerotheca fuliginea. Nature of the data set: In vivo preventive test on Sphaerotheca fuliginea (powdery mildew on cucurbits). As to conditions: Podosphaera fuliginea, 192 h; 500 ppm of active ingredient; preventive spray on gherkin; evaluated 8 days after inoculation; read-out: efficacy. An outline of the steps:
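Young gherkin plants were sprayed with compound in DMSO/acetone/Tween 80 diluted in water. They were inoculated 24 h later with a spore suspension of Sphaerotheca fuliginea. Plants were then kept for 8 days at 20 °C and 70–80% relative humidity.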

Data set [5] concerns Colletotrichum lindemuthianum. Kind of data set: In vivo preventive test on Colletotrichum lindemuthianum (leaf spot on bean). As to conditions: 168 h, 500 ppm of active ingredient, preventive spray on bean, evaluated 7 days after inoculation, read-out: efficacy. The essentials:
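Young bean plants sprayed with compound in DMSO/acetone/Tween 80 diluted in water; solvent-only controls. Inoculated 24 h later with C. lindemuthianum spore suspension, then kept 24 h at 20 °C/100% RH and 6 days at 20 °C/90% RH.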

In data set [6] the test system is Alternaria alternata. Nature of the data set: Alternaria alternata in vitro cell test. Type of data set: cell-based. Particulars: 120 h, 20 ppm of active ingredient, liquid culture, 5 days incubation, spectrometric measurement of mycelium growth, read-out: efficacy (inhibition of fungal growth). An outline of the steps:
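Liquid culture assay in which A. alternata spores in medium received DMSO-solubilized compound (final DMSO ≤1%). After 5 days, mycelium growth was measured spectrometrically. Inhibition was calculated against fungicide-free control wells.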

The test system of data set [7] is Colletotrichum lindemuthianum. Nature of the data set: B-8. Colletotrichum lindemuthianum in vitro cell test. Type of data set: cell-based. Particulars: 144 h, 20 ppm of active ingredient, 6 days incubation, liquid culture, absorbance, read-out: efficacy (inhibition of fungal growth). An outline of the steps: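 Spore suspension of C. lindemuthianum in liquid medium exposed to DMSO-solubilized compounds (final DMSO ≤1%) for 6 days. Mycelial growth read by absorbance, with inhibition calculated relative to compound-free control wells.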

For data set [8], the system named is Septoria tritici. Kind of data set: B-9. Septoria tritici in vitro cell test. Particulars: Zymoseptoria tritici, 168 h; 20 ppm of active ingredient; 7 days incubation; liquid culture, absorbance; read-out: efficacy (inhibition of fungal growth). It is filed as cell-based. On the procedure: B-9. Septoria tritici In Vitro Cell Test [table] Fungicides were solubilized in DMSO and the solution used to prepare the required range of concentrations. The final concentration of DMSO used in the assay was ≤1%. A spore suspension of S. tritici was prepared and diluted to the desired spore density. Fungicides were evaluated for their ability to inhibit spore germination and mycelium growth in liquid culture assay. The compounds were added in the desired concentration to the culture medium with spores. After 7 days incubation, fungi-toxicity of compounds was determined by spectrometric measurement of mycelium growth. Inhibition of fungal growth was determined by comparing the absorbance values in wells containing the fungicides with the absorbance in control wells without fungicides.

In data set [9] the test system is Pyrenophora teres. Kind of data set: B-10. Pyrenophora teres in vitro cell test. Particulars: 144 h, 20 ppm of active ingredient, 6 days incubation, liquid culture, absorbance, read-out: efficacy (inhibition of fungal growth). It is filed as cell-based. The essentials:
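Liquid-culture assay on a P. teres spore suspension with compounds added to the medium from DMSO solutions, final DMSO ≤1%. Mycelium growth read spectrometrically after 6 days. Inhibition calculated from absorbance against untreated control wells.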

For data set [10], the system named is Botrytis cinerea. Nature of the data set: B-11. Botrytis cinerea in vitro cell test. Type of data set: cell-based. As to conditions: 144 h, 20 ppm of active ingredient, 6 days incubation, liquid culture, absorbance, read-out: efficacy (inhibition of fungal growth). The essentials: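 B. cinerea spores were grown in liquid culture with compound (DMSO ≤1% final). Mycelium growth was measured spectrometrically after 6 days, with inhibition taken as absorbance relative to untreated control wells.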

The test system of data set [11] is Alternaria brassicae. Kind of data set: In vivo preventive test on Alternaria brassicae (leaf spot on radish or cabbage). Particulars: 500 ppm of active ingredient, preventive spray on radish or cabbage, evaluated 3 to 4 days after inoculation, read-out: efficacy. An outline of the steps:
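Young radish or cabbage plants were sprayed with compound dissolved in DMSO/acetone/Tween 80 and diluted in water; controls received solvent only. Inoculation by spraying A. brassicae spore suspension 24 h later, then 3–4 days at 20 °C and 100% relative humidity.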

The chromatographic logP is a lipophilicity value derived from retention on a column. A word on the inhibition: it is the share of the control response that was lost under treatment.

As for `O=C(NCC(F)(F)c1ccc(Br)cc1Cl)c1c(Oc2cccc(C(F)(F)F)c2)nnc2c1CCCC2` [I-207], in [1], the chromatographic logP turned out to be 4.28. For the same molecule, the pest or weed control at 500 ppm in data set [2], in [3], in [4] and in data set [5] was 90 to 100% in each case. Besides, the inhibition at 20 ppm in data set [6], in [7], in data set [8], in [9] and in data set [10] was 90 to 100% throughout.
In data set [1], `O=C(NCC(F)(F)c1ccc(Cl)cc1Cl)c1c(Oc2cccc(C3CC3)c2F)nnc2c1CCCC2` [I-196] returned a chromatographic logP of 4.28. The pest or weed control at 500 ppm in data set [2], in data set [3], in data set [4] and in [5] was 90 to 100% in each case. Besides, the inhibition at 20 ppm in data set [6], in data set [7], in [8], in data set [9] and in [10] was 90 to 100% in each case.
As to `Cc1cc(Br)ccc1C(F)(F)CNC(=O)c1c(Oc2cccc(C(F)(F)F)c2)nnc2c1CCCC2` [I-202], in [1], the chromatographic logP amounted to 4.28. In addition, the pest or weed control at 500 ppm in [2], in data set [3], in data set [4] and in data set [5] was 90 to 100% each time. Besides, the inhibition at 20 ppm in [6], in data set [7], in [8], in data set [9] and in [10] was 90 to 100% throughout.
With `O=C(NCC(F)(F)c1ccc(Br)cc1Cl)c1c(Oc2cccc(C(F)F)c2)nnc2c1CCCC2` [I-208], the chromatographic logP in [1] turned out to be 3.84. In addition, the pest or weed control at 500 ppm in data set [2], in data set [3], in [4] and in data set [5] was 90 to 100% each time. In addition, the inhibition at 20 ppm in data set [6], in data set [7], in data set [8], in data set [9] and in data set [10] was 90 to 100% each time.
`Cc1cc(Cl)ccc1C(F)(F)CNC(=O)c1c(Oc2cccc(C3CC3)c2F)nnc2c1CCCC2` [I-147] registered a chromatographic logP in data set [1] of 4.34. The pest or weed control at 500 ppm in data set [11], in data set [2], in data set [3], in [4] and in data set [5] was 90 to 100% each time. For the same molecule, the inhibition at 20 ppm in data set [6], in data set [7], in data set [8] and in data set [9] was 90 to 100% throughout.
With `O=C(NCC(F)(F)c1ccc(Br)cc1Cl)c1c(Oc2cccc(C3CC3)c2F)nnc2c1CCCC2` [I-211], the chromatographic logP in [1] came out at 4.69. For the same molecule, the pest or weed control at 500 ppm in [2], in data set [3], in [4] and in [5] was 90 to 100% in each case. The inhibition at 20 ppm in [6], in data set [7], in [8], in data set [9] and in data set [10] was 90 to 100% throughout.
Consider `Cc1ccc(C(F)(F)CNC(=O)c2c(Oc3cccc(C(F)(F)F)c3)nnc3c2CCCC3)c(C)c1` [I-115], for which the chromatographic logP in [1] amounted to 4.05. The pest or weed control at 500 ppm in data set [11], in [2], in data set [3], in [4] and in data set [5] was 90 to 100% throughout. The inhibition at 20 ppm in data set [6], in data set [7], in data set [8] and in data set [9] was 90 to 100% each time.
